Results published in patent US20260083698A1, “Synergistic Stimulation of Mucociliary Clearance to Treat Mucus Obstruction in Cystic Fibrosis and Other Muco-Obstructive Disorders” (The Board of Trustees of the Leland Stanford Junior …, priority 2022, published 2026).

Tests used:
pig tracheal mucosa = assay: Short circuit current (Isc) and conductance, Ussing chamber, pig; conditions: WT pigs; 30 min single agonist then 30 min combined
Source text: (§1) FIG. 4. Combined agonists inhibit sodium absorption and stimulate anion secretion by surface epithelia. (A) Cartoon of two electrogenic, ion transport pathways across airway apical epithelium: anion secretion increases surface fluid, Na+ absorption decreases surface fluid. The two pathways have opposite effects on fluid depth, but additive effects on short circuit current (Isc) because of their opposite valence and transport directions. (B) Raw trace of Isc across pig tracheal epithelium using Chart 4 software. After reaching a stable, unstimulated Isc (here, >2 h post-mounting), 10 μM forskolin, 0.3 μM carbachol, 10 μM benzamil, 20 μM benzopyrimido-pyrrolo-oxazinedione (BPO-27) and 200 μM niflumic acid were sequentially added at times shown. (C, D) Pig tracheal mucosa: averaged Δ Isc plots over time in response to (C) forskolin alone followed by forskolin+carbachol and (D) reversed order of agonist addition. (E & F) Ferret tracheal mucosa: averaged A Isc plots with same protocol as for pigs. Pig traces (C, D) are based on 10-12 experiments with tissues from 6 to 7 pigs. Ferret traces (E, F) are from 7 experiments with tissues from 5 ferrets.
Combined agonists stimulate epithelial surface anion secretion and inhibit Na^+ absorption. The surface epithelia also modify ASL. FIG. 4A is a cartoon of the main ion flows controlling ASL depth: anion-mediated fluid secretion increases, and Na^+-mediated fluid absorption decreases ASL depth. It was hypothesized that the combined agonists increase ASL depth and thus MCCV by stimulating secretion and inhibiting absorption (see also FIG. 6). […] With no counterbalancing absorption ASL depth is predicted to increase (dotted gold line in FIG. 6A) unless MCCV increases.
Inhibiting Na+ absorption would increase net fluid accumulation on the surface. […]
(§2) Electrophysiology. […] Total tissue conductance was calculated by applying Ohm's law to the Isc deflection resulting from a 1 mV pulse across the tissues every 20 s during the experiment. […]

ferret tracheal mucosa = assay: Short circuit current (Isc), Ussing chamber, ferret; conditions: WT ferrets; 30 min single agonist then 30 min combined
Source text: as §1, with “ferrets. […]” for “ferrets.”
as §2

C[N+](C)(C)CCOC(N)=O [carbachol]
ΔIsc, summary plots (pig tracheal mucosa): decreased directly or after a transient increase
ΔIsc, summary plots (ferret tracheal mucosa): decreased directly or after a transient increase
